These results are taken from ChEMBL document CHEMBL4433238, “2,4,5-Tris(alkoxyaryl)imidazoline derivatives as potent scaffold for novel p53-MDM2 interaction inhibitors: Design, synthesis, and biological evaluation” (Bioorg Med Chem Lett, 2019).

For orientation: IC50 means the concentration needed to halve the response being measured.

For data set [1], the target named is Tumour suppressor p53/oncoprotein Mdm2 (Homo sapiens) (UniProt P04637+Q00987). Nature of the data set: Inhibition of MDM2/P53 interaction in human A549 cells assessed as increase in p53 level at 10 to 20 uM after 24 hrs by Western blot analysis. It is filed as cell-based. (A western blot detects proteins with antibodies after separation by electrophoresis.)
The subject of data set [2] is A549. Nature of the data set: Cytotoxicity against human A549 cells assessed as reduction in cell viability after 72 hrs by MTT assay. It is filed as functional, cell-based. To be noted: A549, 72 h.
In data set [3] the test system is A549. Nature of the data set: Induction of apoptosis in human A549 cells assessed as increase in necrotic cells at 40 to 80 uM incubated for 24 hrs by Annexin V-FITC/propidium iodide staining based flow cytometry relative to control. It is filed as functional.
The test system of data set [4] is A549. Nature of the data set: Induction of apoptosis in human A549 cells assessed as cell death at 80 uM after 24 hrs by Annexin V-FITC/propidium iodide staining based flow cytometry. Format: functional.
The subject of data set [5] is A549. Nature of the data set: Induction of necrosis in human A549 cells at >20 uM after 24 hrs by Annexin V-FITC/propidium iodide staining based flow cytometry. Format: functional, cell-based.
Data set [6] concerns A549. Nature of the data set: Induction of apoptosis in human A549 cells assessed as increase in PARP cleavage at 40 uM after 24 hrs by Western blot analysis. Format: functional, cell-based.
Data set [7] relates to A549. Nature of the data set: Induction of apoptosis in human A549 cells assessed as caspase-3 p17/19 active fragment generation at 40 uM after 24 hrs by Western blot analysis. It is filed as functional, cell-based.
Data set [8] relates to A549. Nature of the data set: Induction of apoptosis in human A549 cells assessed as necrotic cells up to 80 uM incubated for 24 hrs by Annexin V-FITC/propidium iodide staining based flow cytometry. Format: functional, cell-based.
Data set [9] relates to A549. Nature of the data set: Induction of apoptosis in human A549 cells assessed as caspase-3 p17/19 active fragment generation at 80 uM after 24 hrs by Western blot analysis. Format: functional, cell-based.
The test system of data set [10] is A549. Nature of the data set: Induction of apoptosis in human A549 cells assessed as increase in apoptotic cells at 80 uM incubated for 24 hrs by Annexin V-FITC/propidium iodide staining based flow cytometry. It is filed as functional, cell-based. A general note: Flow cytometry measures light scatter and fluorescence of single cells or particles in a stream.
Data set [11] has as its system A549. Nature of the data set: Induction of apoptosis in human A549 cells assessed as increase in apoptotic cells up to 40 uM incubated for 24 hrs by Annexin V-FITC/propidium iodide staining based flow cytometry. It is filed as functional, cell-based.
Data set [12] has as its system A549. Nature of the data set: Induction of apoptosis in human A549 cells assessed as increase in PARP cleavage at 80 uM after 24 hrs by Western blot analysis. It is filed as functional, cell-based.
The subject of data set [13] is A549. Nature of the data set: Induction of apoptosis in human A549 cells assessed as cell death up to 40 uM after 24 hrs by Annexin V-FITC/propidium iodide staining based flow cytometry. It is filed as functional.
Data set [14] concerns A549. Nature of the data set: Cytotoxicity against human A549 cells at 1.56 to 100 uM after 72 hrs by MTT assay. Format: functional, cell-based. (Formazan colour is commonly taken as a measure of viable cells.)
A short description of data set [15]: Solubility of compound in water. Format: physicochemical. As to conditions: buffer.

The structures appear in SMILES notation. The source made the active and inactive calls. No cut-off for these calls is given here.

Chain of Tumour suppressor p53/oncoprotein Mdm2 (Homo sapiens) (P04637 whole entry, looked up): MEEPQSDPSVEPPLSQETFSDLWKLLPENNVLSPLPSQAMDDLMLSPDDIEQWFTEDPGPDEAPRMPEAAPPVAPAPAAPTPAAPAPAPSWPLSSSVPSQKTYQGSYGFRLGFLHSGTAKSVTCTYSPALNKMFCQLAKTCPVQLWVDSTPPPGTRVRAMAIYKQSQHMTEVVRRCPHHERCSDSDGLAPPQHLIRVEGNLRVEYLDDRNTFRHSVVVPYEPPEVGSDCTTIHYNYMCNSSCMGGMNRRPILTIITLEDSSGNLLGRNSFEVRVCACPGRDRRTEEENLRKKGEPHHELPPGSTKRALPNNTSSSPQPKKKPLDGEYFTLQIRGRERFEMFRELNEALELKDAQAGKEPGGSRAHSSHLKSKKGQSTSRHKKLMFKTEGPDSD
Chain of Tumour suppressor p53/oncoprotein Mdm2 (Homo sapiens) (Q00987 whole entry, looked up): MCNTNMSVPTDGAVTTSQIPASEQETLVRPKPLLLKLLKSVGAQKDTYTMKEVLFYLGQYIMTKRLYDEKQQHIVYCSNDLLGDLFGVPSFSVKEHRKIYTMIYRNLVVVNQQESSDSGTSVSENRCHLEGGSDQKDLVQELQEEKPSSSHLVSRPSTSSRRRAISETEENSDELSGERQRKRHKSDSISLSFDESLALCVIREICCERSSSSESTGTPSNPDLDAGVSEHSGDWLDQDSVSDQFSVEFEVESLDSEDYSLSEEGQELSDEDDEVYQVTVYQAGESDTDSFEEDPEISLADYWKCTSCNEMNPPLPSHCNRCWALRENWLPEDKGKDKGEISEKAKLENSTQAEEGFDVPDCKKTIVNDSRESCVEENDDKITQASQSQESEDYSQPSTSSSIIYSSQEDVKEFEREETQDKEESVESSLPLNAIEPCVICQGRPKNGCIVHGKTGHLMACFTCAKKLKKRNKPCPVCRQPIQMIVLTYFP

In the case of `COc1ccc(OC)c(C2=N[C@H](c3cc(OC)ccc3OC)[C@H](c3cc(OC)ccc3OC)N2)c1`, in data set [1], the inhibition result is “inactive”. The IC50 with A549 [2] came out at 21.4 µM.

`CCOc1ccc(C2=N[C@H](c3ccc(OCC)cc3)[C@H](c3ccc(OCC)cc3)N2)cc1`: the Activity result in the data set on A549 [3] is on record as “<=70%”. The outcome in the data set with A549 [4], in the data set on A549 [5], with A549 [6], in the data set with A549 [7] and with A549 [8] was Active. Also, the IC50 with A549 [2] was 13.3 µM.

As for `Fc1ccc(C2=N[C@H](c3ccc(F)cc3)[C@H](c3ccc(F)cc3)N2)cc1`, the IC50 in the data set with A549 [2] came out at 108 µM.

For `COc1ccc(C2=N[C@H](c3ccc(OC)cc3OC)[C@H](c3ccc(OC)cc3OC)N2)c(OC)c1`, the result with A549 [9], with A549 [11], in the data set on A549 [12], with A549 [8] and in the data set on A549 [13] was inactive. Further, in the data set with A549 [10], the outcome was Active. In addition, in the data set with A549 [2], the IC50 was found to be 9.32 µM.

Regarding `Clc1ccc(C2=N[C@H](c3ccc(Cl)c(Cl)c3)[C@H](c3ccc(Cl)c(Cl)c3)N2)cc1Cl`, the IC50 in the data set with A549 [2] was 13.7 µM.

On to `Oc1ccc(C2=N[C@H](c3ccc(O)cc3)[C@H](c3ccc(O)cc3)N2)cc1`, for which the result in the data set with A549 [14] was inactive.

With `COc1ccccc1C1=N[C@H](c2ccccc2OC)[C@H](c2ccccc2OC)N1`, in the data set with A549 [2], the IC50 was determined as 27.4 µM.

For `Oc1ccc(O)c(C2=N[C@H](c3cc(O)ccc3O)[C@H](c3cc(O)ccc3O)N2)c1`, the result with A549 [14] was inactive.

`Clc1ccc(C2=N[C@H](c3ccc(Cl)cc3)[C@H](c3ccc(Cl)cc3)N2)cc1`: the Activity entry in the data set on A549 [3] is “<=70%”. Further, the result in the data set with A549 [4], in the data set with A549 [5], in the data set on A549 [6], in the data set on A549 [7] and in the data set with A549 [8] was Active. Moreover, in the data set with A549 [2], the half-maximal inhibitory concentration (IC50) was determined as 20.2 µM.

As for `COc1cc(C2=N[C@H](c3cc(OC)c(OC)c(OC)c3)[C@H](c3cc(OC)c(OC)c(OC)c3)N2)cc(OC)c1OC`, the outcome with A549 [14] was inactive.

As for `Brc1ccc(C2=N[C@H](c3ccc(Br)cc3)[C@H](c3ccc(Br)cc3)N2)cc1`, the solubility entry in [15] is “Insoluble”. In the data set on A549 [2], the IC50 turned out to be 9.05 µM.

For `Oc1ccccc1C1=N[C@H](c2ccccc2O)[C@H](c2ccccc2O)N1`, in the data set with A549 [2], the IC50 stood at 311 µM.

With `COc1ccc(C2=N[C@H](c3ccc(OC)cc3)[C@H](c3ccc(OC)cc3)N2)cc1`, the result in the data set on A549 [9], in the data set on A549 [11], in the data set with A549 [12], in the data set on A549 [8] and with A549 [13] was inactive. In addition, the result in the data set on A549 [10] was Active. Moreover, the IC50 in the data set on A549 [2] was determined as 43.9 µM.

Regarding `CCOc1ccc(C2=N[C@H](c3ccc(OCC)c(OC)c3)[C@H](c3ccc(OCC)c(OC)c3)N2)cc1OC`, the IC50 in the data set with A549 [2] was found to be 67.5 µM.

Take `COc1ccc(C2=N[C@H](c3ccc(OC)c(OC)c3)[C@H](c3ccc(OC)c(OC)c3)N2)cc1OC`: the IC50 in the data set with A549 [2] was found to be 84.7 µM.

As for `CCOc1c(OC)cccc1C1=N[C@H](c2cccc(OC)c2OCC)[C@H](c2cccc(OC)c2OCC)N1`, the IC50 with A549 [2] is 24.3 µM.

Take `COc1cccc(C2=N[C@H](c3cccc(OC)c3)[C@H](c3cccc(OC)c3)N2)c1`: the IC50 in the data set on A549 [2] was 64.3 µM.

With `COc1ccc(C2=N[C@H](c3ccc(O)cc3)[C@H](c3ccc(O)cc3)N2)cc1`, the result in the data set with A549 [14] was inactive.

Take `COc1cccc(C2=N[C@H](c3cccc(OC)c3OC)[C@H](c3cccc(OC)c3OC)N2)c1OC`: the inhibition result in data set [1] is “inactive”. The IC50 in the data set on A549 [2] was found to be 16.2 µM.

For the molecule `Clc1ccc(C2=N[C@H](c3ccc(Cl)cc3Cl)[C@H](c3ccc(Cl)cc3Cl)N2)c(Cl)c1`, the IC50 with A549 [2] turned out to be 164 µM.

In the case of `Clc1ccccc1C1=N[C@H](c2ccccc2Cl)[C@H](c2ccccc2Cl)N1`, in data set [15], the solubility entry is on record as “Insoluble”. The IC50 with A549 [2] was 10.7 µM.
